Key:
[1] = molecular target: T1, α1C Human Adrenergic Receptor (Homo sapiens, UniProt P35348); test: Radioligand binding, [3H]prazosin, cloned human α1C adrenergic receptor; conditions: pKi alpha-1 1c, cloned human α1C receptor, LM(tk−) cell membranes
T1 construct: The entire coding region of α1C (1401 bp); expressed in transfected cells
T1 sequence (P35348 1-466): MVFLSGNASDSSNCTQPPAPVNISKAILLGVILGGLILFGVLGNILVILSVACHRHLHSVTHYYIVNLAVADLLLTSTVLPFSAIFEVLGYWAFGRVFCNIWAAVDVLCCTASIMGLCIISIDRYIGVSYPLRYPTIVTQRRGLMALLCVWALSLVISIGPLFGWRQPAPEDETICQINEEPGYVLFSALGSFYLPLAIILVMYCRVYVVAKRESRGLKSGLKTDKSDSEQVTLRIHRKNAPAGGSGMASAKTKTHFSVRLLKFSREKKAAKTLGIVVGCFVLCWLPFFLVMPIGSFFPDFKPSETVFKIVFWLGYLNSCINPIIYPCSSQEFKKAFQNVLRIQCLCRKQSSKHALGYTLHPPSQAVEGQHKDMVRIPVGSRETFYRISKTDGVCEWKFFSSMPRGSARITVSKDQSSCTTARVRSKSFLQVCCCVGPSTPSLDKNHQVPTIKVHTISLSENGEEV
How it was run: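 Antagonist radioligand [3H]prazosin at 0.5 nM labels human α1C receptors in stably transfected LM(tk−) cell membranes over 20 min at 37° C. Phentolamine (10 μM) gives nonspecific binding.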

[2] = molecular target: T2, α1B Human Adrenergic Receptor (Homo sapiens, UniProt P35368); test: Radioligand binding, [3H]prazosin, cloned human α1B adrenergic receptor; conditions: pKi alpha-1 1b, cloned human α1B receptor, LM(tk−) cell membranes
T2 construct: The entire coding region of α1B (1563 bp); expressed in transfected cells
T2 sequence (P35368 1-520): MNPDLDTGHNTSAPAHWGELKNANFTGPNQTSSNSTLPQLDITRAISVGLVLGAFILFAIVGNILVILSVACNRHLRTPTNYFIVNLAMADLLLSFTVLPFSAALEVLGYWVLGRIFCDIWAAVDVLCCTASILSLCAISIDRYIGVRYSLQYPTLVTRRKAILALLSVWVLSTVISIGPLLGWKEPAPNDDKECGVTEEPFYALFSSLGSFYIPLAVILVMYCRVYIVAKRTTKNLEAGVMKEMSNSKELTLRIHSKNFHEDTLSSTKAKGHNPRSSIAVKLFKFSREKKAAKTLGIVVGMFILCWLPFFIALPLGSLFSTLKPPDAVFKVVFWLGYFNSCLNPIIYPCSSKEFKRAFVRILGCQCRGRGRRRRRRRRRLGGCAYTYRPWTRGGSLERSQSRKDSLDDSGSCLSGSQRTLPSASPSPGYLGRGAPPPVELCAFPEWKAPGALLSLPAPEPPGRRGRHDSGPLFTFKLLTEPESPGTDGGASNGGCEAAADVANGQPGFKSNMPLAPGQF
How it was run: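 Membranes from stably transfected LM(tk−) cells, resuspended in 50 mM Tris-HCl, 1 mM MgCl2, 0.1% ascorbic acid, pH 7.5, were incubated with 0.5 nM [3H]prazosin for 20 min at 37° C. Nonspecific binding defined with 10 μM phentolamine; bound ligand separated by GF/B filtration.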

[3] = molecular target: T3, α1A Human Adrenergic Receptor (Homo sapiens, UniProt P25100); test: Radioligand binding, [3H]prazosin, cloned human α1A adrenergic receptor; conditions: pKi alpha-1 1a, [3H]prazosin, cloned human α1A receptor, LM(tk−) cell membranes
T3 construct: The entire coding region of α1A (1719 bp); expressed in transfected cells
T3 sequence (P25100 1-572): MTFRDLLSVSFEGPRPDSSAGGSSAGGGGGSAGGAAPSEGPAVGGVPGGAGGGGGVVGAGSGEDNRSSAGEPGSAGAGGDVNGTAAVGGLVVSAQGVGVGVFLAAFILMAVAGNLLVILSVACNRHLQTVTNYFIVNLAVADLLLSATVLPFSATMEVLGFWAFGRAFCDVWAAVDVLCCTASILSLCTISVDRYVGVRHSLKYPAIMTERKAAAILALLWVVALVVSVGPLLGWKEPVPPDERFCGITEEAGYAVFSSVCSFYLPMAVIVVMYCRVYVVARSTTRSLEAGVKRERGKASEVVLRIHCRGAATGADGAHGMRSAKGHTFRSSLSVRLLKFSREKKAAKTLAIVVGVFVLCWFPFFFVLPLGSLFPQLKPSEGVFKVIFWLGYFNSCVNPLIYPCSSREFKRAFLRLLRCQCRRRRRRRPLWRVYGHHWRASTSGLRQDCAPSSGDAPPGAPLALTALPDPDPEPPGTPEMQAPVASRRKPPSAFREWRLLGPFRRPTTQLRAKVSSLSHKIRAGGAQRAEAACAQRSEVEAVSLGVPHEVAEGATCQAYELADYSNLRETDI
How it was run: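 Membranes from LM(tk−) cells transfected with cloned human α1A receptor, prepared in 50 mM Tris-HCl, 1 mM MgCl2, 0.1% ascorbic acid pH 7.5, were incubated with 0.5 nM [3H]prazosin at 37° C for 20 min. Nonspecific binding was defined with 10 μM phentolamine; bound ligand was separated by GF/B filtration.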

| SMILES | melting point [°C] | Ki [1] [nM] | Ki [2] [nM] | Ki [3] [nM] |
| --- | --- | --- | --- | --- |
| CC1=C(C(=O)NCCCN2CCC(c3ccccc3)(c3ccccc3)CC2)C(c2ccc([N+](=O)[O-])cc2)C(C(=O)NC(C)C)=C(C)N1 (centres unmarked) [Example 156, 1,4-Dihydro-3-(N-isopropyl) carboxamido-2,6-dimethyl-4-(4-nitrophenyl)-5-{N-[3-(^414-diphenylpiperidin-1-yl)propyl]}carboxamidopyridine] | 123 to 125 | 95.5 | 676 | 1320 |
| CNC(=O)C1=C(C)NC(C)=C(C(=O)NCCCN2CCC(O)(c3ccccc3)CC2)C1c1ccc([N+](=O)[O-])cc1 (centres unmarked) [Example 162, 1,4-Dihydro-3-{N-[3-(4-hydroxy-4-phenylpiperidin-1-yl)propyl]}carboxamido-2,6-dimethyl-5-(N-methyl)carboxamido-4-(4-nitrophenyl)pyridine] | 87 to 91 | 11.5 | 257 | 1070 |
